The values below come from ChEMBL document CHEMBL1201862, “PubChem BioAssay data set” (2004).

Activity calls are given as the source filed them. Some results are limits rather than exact numbers.

One data set addresses Cytochrome P450 2C19 (Homo sapiens, UniProt P33261). Briefly: Cytochrome panel assay with activity outcomes. Panel member name: p450-cyp2c19 Compounds with AC50 equal or less than 10 uM are considered active. It is filed as functional.
For the next data set, the target named is T1, Streptokinase A (Streptococcus pyogenes serotype M1, UniProt P10520).
T1 sequence (P10520 whole entry): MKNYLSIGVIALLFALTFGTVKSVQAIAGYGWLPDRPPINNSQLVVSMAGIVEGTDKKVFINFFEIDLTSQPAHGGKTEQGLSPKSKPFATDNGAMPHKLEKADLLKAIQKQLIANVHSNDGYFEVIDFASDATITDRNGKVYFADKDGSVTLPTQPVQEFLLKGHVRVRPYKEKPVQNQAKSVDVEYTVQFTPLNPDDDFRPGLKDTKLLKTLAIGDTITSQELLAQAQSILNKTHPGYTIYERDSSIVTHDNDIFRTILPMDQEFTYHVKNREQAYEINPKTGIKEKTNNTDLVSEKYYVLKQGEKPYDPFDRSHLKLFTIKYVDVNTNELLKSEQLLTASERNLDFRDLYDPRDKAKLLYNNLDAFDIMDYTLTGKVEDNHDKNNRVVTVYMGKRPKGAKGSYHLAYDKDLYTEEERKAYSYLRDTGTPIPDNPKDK
Briefly: viability-normalized secreted streptokinase activity reduction – plasminogen activation absorbance, OD405, dose response (AID 1914).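 Further: secreted streptokinase activity via plasminogen activation per viability signal from cell pellet.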 It is filed as functional, Streptococcus pyogenes M1 GAS.

Data set [1] relates to Streptococcus sp. 'group A'. Briefly: Streptococcus pyogenes SK(-)GAS viability under kanamycin – luminescence, BacTiterGlo, confirmation, counter-screen for streptokinase expression inhibitor project, dose response (AID 1900). It is filed as functional, organism-based. On the technique in general: Counterscreens check selectivity or assay interference.
The test system of a further data set is Streptococcus. Kind of data set: GAS UMAA2166 growth inhibition – luminescence, BacTiterGlo, counter-screen for streptokinase expression inhibitor project, dose response (AID 1915).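 Further: potency for reduction of bacterial viability or growth.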 In kind it is functional, organism-based.
The target of data set [2] is T2, Rac GTPase-activating protein 1 (Homo sapiens, UniProt Q9H0H5).
T2 sequence (Q9H0H5 whole entry): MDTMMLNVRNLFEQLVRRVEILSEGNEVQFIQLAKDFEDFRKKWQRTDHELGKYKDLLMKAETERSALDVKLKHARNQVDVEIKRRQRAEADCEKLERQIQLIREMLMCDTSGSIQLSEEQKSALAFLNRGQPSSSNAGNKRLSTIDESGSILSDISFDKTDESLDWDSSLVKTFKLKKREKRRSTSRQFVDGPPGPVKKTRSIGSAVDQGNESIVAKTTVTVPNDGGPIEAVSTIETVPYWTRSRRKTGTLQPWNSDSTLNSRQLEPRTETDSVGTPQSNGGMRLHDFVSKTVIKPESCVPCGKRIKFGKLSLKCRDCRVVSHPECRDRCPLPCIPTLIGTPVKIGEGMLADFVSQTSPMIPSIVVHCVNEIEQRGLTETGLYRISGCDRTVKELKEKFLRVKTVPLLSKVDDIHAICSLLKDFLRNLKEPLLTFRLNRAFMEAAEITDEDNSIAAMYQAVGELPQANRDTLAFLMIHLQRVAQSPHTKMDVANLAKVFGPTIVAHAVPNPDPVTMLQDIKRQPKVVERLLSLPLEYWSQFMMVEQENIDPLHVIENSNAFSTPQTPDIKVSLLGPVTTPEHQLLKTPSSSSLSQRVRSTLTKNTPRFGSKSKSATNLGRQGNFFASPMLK
Briefly: blockers of MgcRacGAP-driven Rac1 GTP hydrolysis – biochemical, ADP Hunter fluorescence, primary and confirmatory, confirmation (AID 624330). It is filed as functional.

The next data set addresses Cytochrome P450 2C9 (Homo sapiens, UniProt P11712).
The target in the next data set is Cytochrome P450 2D6 (Homo sapiens, UniProt P10635).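 Further: CYP2D6 member of a cytochrome P450 panel assay.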
The target of a further data set is T3, Cytochrome P450 1A2 (Homo sapiens, UniProt P05177).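 Further: PubChem cytochrome P450 panel assay, CYP1A2 panel member.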
T3 sequence (P05177 whole entry): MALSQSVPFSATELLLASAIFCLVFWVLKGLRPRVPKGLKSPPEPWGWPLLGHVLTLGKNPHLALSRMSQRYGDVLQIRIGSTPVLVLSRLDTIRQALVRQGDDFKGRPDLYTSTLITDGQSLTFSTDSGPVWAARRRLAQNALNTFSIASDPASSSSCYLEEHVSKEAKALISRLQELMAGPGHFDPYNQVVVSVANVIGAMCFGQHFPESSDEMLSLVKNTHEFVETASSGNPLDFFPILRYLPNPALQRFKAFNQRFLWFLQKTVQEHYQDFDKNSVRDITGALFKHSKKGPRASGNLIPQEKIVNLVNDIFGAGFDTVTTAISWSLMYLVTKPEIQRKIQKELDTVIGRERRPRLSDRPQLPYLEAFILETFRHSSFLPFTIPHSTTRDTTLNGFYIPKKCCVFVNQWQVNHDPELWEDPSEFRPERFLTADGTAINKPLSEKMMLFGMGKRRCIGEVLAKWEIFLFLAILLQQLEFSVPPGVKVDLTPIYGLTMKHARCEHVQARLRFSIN

Cytochrome P450 2D6, sequence (P10635 whole entry): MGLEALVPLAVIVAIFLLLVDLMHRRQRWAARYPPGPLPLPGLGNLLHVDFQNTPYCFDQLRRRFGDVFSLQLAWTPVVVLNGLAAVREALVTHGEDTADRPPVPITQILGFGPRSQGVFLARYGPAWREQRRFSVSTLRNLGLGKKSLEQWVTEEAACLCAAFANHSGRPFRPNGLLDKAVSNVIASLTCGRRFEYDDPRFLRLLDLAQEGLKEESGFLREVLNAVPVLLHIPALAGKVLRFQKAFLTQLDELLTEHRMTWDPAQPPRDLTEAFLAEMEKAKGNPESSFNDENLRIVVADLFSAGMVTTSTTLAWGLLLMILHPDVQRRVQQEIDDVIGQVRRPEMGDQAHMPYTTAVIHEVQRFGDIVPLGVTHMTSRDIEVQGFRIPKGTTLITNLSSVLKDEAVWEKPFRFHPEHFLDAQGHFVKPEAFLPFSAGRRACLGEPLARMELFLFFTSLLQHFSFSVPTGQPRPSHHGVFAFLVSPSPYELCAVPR
Cytochrome P450 2C19, sequence (P33261 whole entry): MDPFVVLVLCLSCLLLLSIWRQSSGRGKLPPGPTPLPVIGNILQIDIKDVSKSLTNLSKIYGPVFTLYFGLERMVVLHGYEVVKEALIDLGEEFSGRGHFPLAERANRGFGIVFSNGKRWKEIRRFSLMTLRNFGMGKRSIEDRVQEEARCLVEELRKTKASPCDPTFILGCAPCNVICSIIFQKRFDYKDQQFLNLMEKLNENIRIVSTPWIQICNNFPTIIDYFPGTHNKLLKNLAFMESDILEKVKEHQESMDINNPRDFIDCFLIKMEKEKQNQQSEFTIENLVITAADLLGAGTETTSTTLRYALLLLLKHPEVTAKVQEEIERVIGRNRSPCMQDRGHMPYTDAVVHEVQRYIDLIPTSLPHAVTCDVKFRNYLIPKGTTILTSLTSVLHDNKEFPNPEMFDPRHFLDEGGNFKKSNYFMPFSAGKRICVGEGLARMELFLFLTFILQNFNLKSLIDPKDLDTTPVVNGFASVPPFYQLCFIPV
Cytochrome P450 2C9, sequence (P11712 whole entry): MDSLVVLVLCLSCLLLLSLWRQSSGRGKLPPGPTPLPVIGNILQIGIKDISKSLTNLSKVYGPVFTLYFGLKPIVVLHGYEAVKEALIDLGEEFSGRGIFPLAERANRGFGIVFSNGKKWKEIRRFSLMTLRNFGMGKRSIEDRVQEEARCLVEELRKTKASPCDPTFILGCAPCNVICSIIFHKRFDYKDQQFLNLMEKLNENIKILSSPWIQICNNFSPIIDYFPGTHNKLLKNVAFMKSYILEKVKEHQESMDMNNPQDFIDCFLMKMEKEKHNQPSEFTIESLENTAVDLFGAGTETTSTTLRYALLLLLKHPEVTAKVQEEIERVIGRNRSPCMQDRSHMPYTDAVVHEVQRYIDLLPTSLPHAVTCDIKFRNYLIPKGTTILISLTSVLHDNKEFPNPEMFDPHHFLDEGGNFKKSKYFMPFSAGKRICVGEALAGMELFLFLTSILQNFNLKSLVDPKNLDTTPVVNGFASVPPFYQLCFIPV

Consider `N=C(N)SCC(=O)O`, for which the AC50 entry at Cytochrome P450 2C19 is on record as “inconclusive”.
The same measure, in the same setting: under `CC(=O)NC(CCS(C)(=O)=O)C(=O)Nc1c(F)cccc1F` (centres undefined) stands “inconclusive”.
Consider `O=C(c1cccs1)N1CCC(c2nc(O)c3nnn(Cc4ccccc4Cl)c3n2)CC1`, for which the half-maximal effective concentration (EC50) is reported as > 150 µM (not active) on Streptokinase A, > 50 µM (not active) in data set [1] and > 50 µM (not active) in the data set with Streptococcus.
Consider `CCOC(=O)c1[nH]c2ccccc2c1N=C(S)Nc1cccc(C)c1`, for which the IC50 in data set [2] was 115 µM (active).
Consider `Clc1cccc(Nc2ncnc3c2cnn3-c2ccccc2)c1`, for which the concentration giving a half-maximal response (EC50) at Streptokinase A was > 150 µM (not active); in data set [1], 7.78 µM (active); in the data set with Streptococcus it was 6.82 µM (active).
On to `O=c1c(-c2ccc(F)cc2)nc2cnc(Oc3ccccc3)nc2n1Cc1cccs1`, for which the half-maximal activity concentration (AC50) on Cytochrome P450 2C9 is 2.51 µM (inconclusive).
Consider `COc1ccc(C(=O)N2CCC[C@@]3(CCN(CC(C)C)C3)C2)cc1`, for which the AC50 on Cytochrome P450 2D6 was 15.8 µM (inconclusive); at Cytochrome P450 1A2 it was 31.6 µM (inconclusive).
Take `COc1cc(/C=C/C(=O)OCC(=O)NCC2CCCCC2)ccc1O`: the IC50 in data set [2] was 39.3 µM (active).
`Nc1ccc(/N=N\c2ccccc2)c(N)n1`: the half-maximal activity concentration (AC50) at Cytochrome P450 2C9 is 15.8 µM (inconclusive); on Cytochrome P450 2C19 (read-out: AC50), 7.94 µM (inconclusive).
In the case of `CCOC(=O)c1ccc(NC(=O)COc2ccccc2OC)cc1`, the half-maximal activity concentration (AC50) at Cytochrome P450 1A2 was 7.08 µM (inconclusive); on Cytochrome P450 2C19 (read-out: AC50), 3.98 µM (inconclusive).
`CC(C)CN1CC[C@@]2(CCCN(C(=O)c3cc(C(F)(F)F)cc(C(F)(F)F)c3)C2)C1`: the results for the AC50 at Cytochrome P450 1A2 and on Cytochrome P450 2C19 (read-out: AC50) were 25.1 µM (inconclusive) and 39.8 µM (inconclusive), respectively.
Regarding `CCc1cc2c(=O)c(-c3nc4ccccc4n3C)c(C)oc2c(CN(CC)CC)c1O`, at Cytochrome P450 2C19 (read-out: AC50), the AC50 is 3.55 µM (inconclusive).
`Cc1ccccc1NC(=O)NCCCCc1ccccc1`: the EC50 (at Streptokinase A; in data set [1]; with Streptococcus) was > 150 µM (not active) each time.
Regarding `Cn1cc(-c2nc3cnc(N4CCNCC4)nc3n(CCc3ccccc3)c2=O)c2ccccc21`, the AC50 was 39.8 µM (inconclusive) on Cytochrome P450 2D6 and 15.8 µM (inconclusive) at Cytochrome P450 1A2.
Take `Cc1cnc(CNc2ncncc2-c2ccc3c(c2)OCO3)cn1`: on Cytochrome P450 2D6, the concentration at half-maximal activity (AC50) is 20 µM (inconclusive).
Take `CC(C)CN(Cc1cc(=O)oc2cc3c(cc12)CCCC3)CC(C)C`: the half-maximal effective concentration (EC50) is 5.67 µM (active) on Streptokinase A, 6.12 µM (active) in data set [1] and 21.2 µM (active) with Streptococcus.
`N#Cc1ccc(OC(=O)c2ccc(NC(=N)N)cc2)cc1.c1ccncc1`: the results for the AC50 on Cytochrome P450 2D6 and on Cytochrome P450 1A2 were 3.16 µM (inconclusive) and 2.51 µM (inconclusive), respectively.
With `CCOC(=O)C1CCCN(C(=O)CSCc2ccccc2)C1` (centres undefined), on Cytochrome P450 2D6, the AC50 is 15.8 µM (inconclusive).
`COCCN=C(S)NC1CC2CCCC(C1)N2Cc1cccs1` (centres undefined): the half-maximal activity concentration (AC50) at Cytochrome P450 2C9 was 39.8 µM (inconclusive).
Regarding `CCOC(=O)c1cc2sc(C)cc2n1CC(=O)N1CCN(C(=O)c2ccco2)CC1`, the AC50 on Cytochrome P450 2C9 was 20 µM (inconclusive); on Cytochrome P450 1A2, 31.6 µM (inconclusive).
In the case of `COc1ccc2[nH]cc(CCNc3ccnc(-c4ccccc4C(F)(F)F)n3)c2c1`, the AC50 on Cytochrome P450 2D6 is 15.8 µM (inconclusive).
Take `COc1ccc2nc(N3CCCC(C(=O)NCCCN4CCN(C)CC4)C3)sc2c1` (centres undefined): the half-maximal activity concentration (AC50) was 4.47 µM (inconclusive) at Cytochrome P450 2C9, 12.6 µM (inconclusive) at Cytochrome P450 1A2 and “inconclusive” at Cytochrome P450 2C19.
`COc1ccc(N=Nc2cc(-c3ccccc3)ccc2O)cc1`: the half-maximal effective concentration (EC50) is 7.22 µM (active) on Streptokinase A, 34.7 µM (active) in data set [1] and > 150 µM (not active) in the data set with Streptococcus.
For `O=C(CCc1ccccc1)Nc1nnc(-c2ccc3c(c2)CCCC3)o1`, the EC50 at Streptokinase A was > 150 µM (not active); in data set [1] it was 3.21 µM (active); in the data set with Streptococcus, 26.2 µM (active).
Take `O=C(Nc1ncc2c(n1)-c1ccccc1CC2)c1cccc(Cl)c1`: the concentration at half-maximal activity (AC50) at Cytochrome P450 2C9 was 20 µM (inconclusive); at Cytochrome P450 1A2 it was 2.82 µM (inconclusive).
`COc1cc(/C=C2\C(=N)N3N=C(CC(=O)N4CCOCC4)SC3=NC2=O)ccc1O`: in data set [2], the half-maximal inhibitory concentration (IC50) was 159 µM (active).
In the case of `c1cncc(-c2cc(NCc3cccs3)ncn2)c1`, the AC50 at Cytochrome P450 2D6 is 25.1 µM (inconclusive).
For `O=C(NC(=S)Nc1ccc(-c2nc3ncccc3o2)cc1)c1ccccc1F`, the EC50 was > 150 µM (not active) at Streptokinase A, 84.3 µM (active) in data set [1] and 21.3 µM (active) in the data set with Streptococcus.
Taken in the same sequence, the figures for `CCn1c(=S)sc2c(O)nc(SCC(=O)Nc3cc(OC)ccc3OC)nc21` were 17.8 µM (inconclusive), 6.33 µM (active) and > 150 µM (not active).
Take `Cc1ccc(-c2ncccc2OC(=O)C23CC4CC(CC(C4)C2)C3)cc1`: the results for the AC50 on Cytochrome P450 2D6 and at Cytochrome P450 2C9 were 22.4 µM (inconclusive) and 31.6 µM (inconclusive), respectively.
For the compound `c1nc(NCCN2CCOCC2)c2cc(-c3ccc4c(c3)OCO4)ccc2n1`, on Cytochrome P450 2C19 (read-out: AC50), the AC50 is 39.8 µM (inconclusive).
`COc1ccc(O[C@H]2C=C[C@@H](c3ccccc3)O[C@H]2CO/N=C\C[C@@H]2C=C[C@H](OC(C)=O)[C@H](COC(C)=O)O2)cc1`: at Cytochrome P450 2C9, the half-maximal activity concentration (AC50) is 3.16 µM (inconclusive).
In the case of `COc1ccc(NC(=O)NCCCN2CCCCC2C)cc1` (centres undefined), the half-maximal activity concentration (AC50) is 1.26 µM (inconclusive) on Cytochrome P450 2C9, 25.1 µM (inconclusive) at Cytochrome P450 1A2 and 39.8 µM (inconclusive) on Cytochrome P450 2C19 (read-out: AC50).
For `CC(=O)N1CCN(c2ccccc2NC(=O)COc2ccc(Br)cc2)CC1`, the AC50 at Cytochrome P450 2D6 is 15.8 µM (inconclusive).
In the case of `O=C(CNC(=O)c1cccs1)NCC(=O)OCc1ccc(Cl)cc1`, on Cytochrome P450 2C9, the AC50 was 0.126 µM (inconclusive).
Turning to `CCOC(=O)c1oc2cc(O)cc(C)c2c1C`, the IC50 in data set [2] is 21 µM (active).
Still for that read-out and setting: under `Oc1ccc(Cc2ccccc2Cl)c(O)c1` stands 54.8 µM (active).
As to `COc1ccc(C(=O)O[C@H]2CC[C@@]3(C)[C@H]4CC[C@H]5[C@]3(C[C@]3(O)[C@H]6CN7C[C@H](C)CC[C@H]7[C@](C)(O)[C@]6(O)[C@H](O)C[C@]53O)O[C@]24O)cc1OC`, the AC50 result on Cytochrome P450 2C19 is “inconclusive”.
Turning to `CCOC(=O)c1sc(/N=C/c2ccc(O)cc2O)cc1C`, the IC50 in data set [2] is 22.4 µM (active).
On to `C=C1S/C(=N/c2ccccc2Cl)N(C(=O)c2sc3ccccc3c2Cl)C12CCCCC2`, for which the values for the 50% effective concentration (EC50) (on Streptokinase A; in data set [1]; in the data set with Streptococcus) were 19.8 µM (active), 20.2 µM (active) and > 150 µM (not active), respectively.
Regarding `CCOc1cc(/C=N\n2nnnc2N)ccc1O`, the half-maximal inhibitory concentration (IC50) in data set [2] was 32.1 µM (active).
In the case of `COc1ccc(CNc2ncnc3ccc(-c4ccc(N(C)C)cc4)cc23)c(OC)c1`, the AC50 on Cytochrome P450 2D6 is 25.1 µM (inconclusive); on Cytochrome P450 2C9 it was 0.398 µM (inconclusive).

A word on the AC50: it is the concentration at which the activity in the assay is half-maximal. One may read the EC50 as the concentration that produces a half-maximal response. Usually IC50 stands for the midpoint of a concentration-inhibition curve.
